Experimental data from paper PMC4696656, “Insights into the Mechanism of Action of Bactericidal Lipophosphonoxins” (PLoS ONE, 2015).

Assays:
mice [1] = assay: MTD test in mouse model, administration per os; assay type: in vivo, Mice ICR; conditions: for gross pathology findings: males and females
Procedure: (§1) The MTD (maximum tolerated dose) in mouse model was carried out by MediTox s.r.o. on a commercial basis. The complete protocol for the MTD testing can be found in S3 Supporting Information.
(§2) For the administration the appropriate amount of the Test item (TI) was dissolved in water (aqua for injection, B. Braun, Germany) and administered to mice either orally (in the volume of 0.5 mL/25 g of body weight) or intraperitoneally (in the volume of 1.0 mL/25 g of body weight).
(§3) S3 and S4 Tables summarize the test system parameters, the number of animals used, and the doses tested. Briefly, for each dose, 3 males are 3 females were used.
(§4) All animals from the study were observed daily for clinical signs, morbidity or mortality during acclimation, 0.5, 4, 6, 24 and 48 hours after administration. Onset, duration and severity of any signs were recorded, and used as criteria for early euthanasia decisions. The clinical observations included: changes in skin, fur, eyes, occurrence of secretion and excretion; autonomic activity (e.g. lacrimation, piloerection); changes in gait and posture; changes in unprovoked behavior, presence of stereotypes or bizarre behavior; response to handling. Ether was used for anesthesia in compliance with the Standard Operating Procedures (SOPs) of MediTox, the European convention for the protection of vertebrate animals used for experimental and other scientific purposes (ETS 123), the Czech Collection of laws No. 246/1992, inclusive of the amendments, on the Protection of animals against cruelty, and Public Notice of the Ministry of Agriculture of the Czech Republic, Collection of laws No. 419/2012 as amended, on keeping and exploitation of experimental animals. MediTox s.r.o. is a holder of the accreditation Certificate for user’s issued by Central Committee for Animal Protection of the Czech Republic.
(§5) All the animals that died during study or survived to their scheduled euthanasia (cervical dislocation under ether anesthesia) 8th day after the administration received a complete post-mortem examination and microscopic examination of organs showing evidence of gross pathology. The cause of death of animals that died during the study before the scheduled euthanasia was mainly venostasis of kidneys and liver.
(§6) S3 Supporting in formation. MTD test in mouse mo d el – a detailed […]
(§7) The MTD (maximum tolerated dose) in mouse model was carried out by MediTox s.r.o. on the […]
(§8) The stud y w as carried ou t accordin g to:
(§9) ICH M3(R2) – The International Conference on Harmonization of Technical Requirements for Registration of Pharm aceuticals for Human Use. Relevant SOPs (Standard operating procedures ) […]
(§10) Facility Management and Animal Husbandry
(§11) Animal car e was in comp liance with th e SOPs of MediTox s.r.o., the Euro pean convention fo r the protection of vertebrate animals used for experimental and other scientific purposes (ETS 123), the Czech Collection of laws No. 246/1992, inclusive of the amendments, on the Protection of animals against cruelty, and Public Notice of the Ministry of Agriculture of the Czech Republic, Collection of laws No. 419/2012 as amended, on keeping and exploitation of experimental animals. MediTox s.r.o. is a holder of the accreditation Certificate for user’s issued by Central Committee for Animal Protection of the Czech Republic.
(§12) Animal Welfare Act Compliance
(§13) The stud y was prepared for this t ype of ex perimen t and approved b y th e Ins titutional Animal Care and Use Committee ( IAC UC) and the Committee for Animal Protection of the Ministry of Health (PP 09/2013) of the Czech Republic. Procedures used in this report were designed to conform to accepted practices and to minimize or avoid causing pain, distress, or discomfort to the animals.
(§14) The number of animals selected for use in this study was considered to be the minimum number necessar y to meet scienti fic and regulator y guideli nes for this t ype of stud y.
(§15) Preparation of the Test item application formulations […]

mice [2] = assay: MTD test in mouse model, administration intraperitoneally; assay type: in vivo, Mice ICR
Procedure: as §1, §2, §3, §4, §5, §6, §7, §8, §9, §10, §11, §12, §13, §14, §15

B. subtilis 168 = assay: Selection for resistant strains, stepwise two-fold increased concentration; assay type: cell-based, Bacillus subtilis; conditions: 24 h cultures, two-fold increased concentration each transfer; rifampicin from 0.01 mg/L, DR5026 from 0.5 mg/L
Procedure: A) B. subtilis. […] Then, the growth of the culture was evaluated by OD600nm and an aliquot of the culture was transferred to a new tube with fresh medium and a two-fold increased concentration of the active compound. This template was followed until no growth was detected for DR5026 or until B. subtilis grew at 5 mg/L of rifampicin.

[3] = D2-IP 500 mg/kg i.p., females, 3 animals
[4] = D2-IP 500 mg/kg i.p., males, 3 animals
[5] = D3-IP 250 mg/kg i.p., females, 3 animals
[6] = D3-IP 250 mg/kg i.p., males, 3 animals
[7] = D4-IP 80 mg/kg i.p., females, 3 animals
[8] = D4-IP 80 mg/kg i.p., males, 3 animals
[9] = D5-IP 50 mg/kg i.p., females, 3 animals
[10] = D5-IP 50 mg/kg i.p., males, 3 animals

Compound: CCCCCCCCCCCCCCCCOP(=O)(CCN1C[C@@H](O)[C@H](O)C1)OC[C@H]1O[C@@H](n2ccc(=O)[nH]c2=O)[C@H](O)[C@@H]1O (stereo partly shown) [DR5026]
- gross pathology findings (mice [1]; D1-PO, 5 mg/kg p.o.): NO FINDINGS
- gross pathology findings (mice [1]; D2-PO, 500 mg/kg p.o.): NO FINDINGS
- gross pathology findings (mice [1]; D3-PO, 1000 mg/kg p.o.): NO FINDINGS
- gross pathology findings (mice [1]; D4-PO, 1500 mg/kg p.o.): NO FINDINGS
- gross pathology findings (mice [1]; D5-PO, 2000 mg/kg p.o.): NO FINDINGS
- signs of toxicity (mice [1]; per os 5, 500, 1000, 1500 and 2000 mg/kg, single dose): did not cause any signs of toxicity
- gross pathology changes (mice [1]; per os 5-2000 mg/kg): no gross pathology changes were detected
- highest peroral dose without any signs of toxicity (maximal tolerated dose) (mice [1]; peroral, single dose): 2000 mg/kg
- gross pathology findings (mice [2]; D1-IP, 5 mg/kg i.p., males and females): NO FINDINGS
- abdominal cavity red liquid, number of animals with finding (mice [2]; [3]): 2
- kidneys venostasis, number of animals with finding (mice [2]; [3]): 2
- liver venostasis, number of animals with finding (mice [2]; [3]): 2
- lungs focal hemorrhage, number of animals with finding (mice [2]; [3]): 1
- abdominal cavity red liquid, number of animals with finding (mice [2]; [4]): 2
- kidneys venostasis, number of animals with finding (mice [2]; [4]): 2
- liver venostasis, number of animals with finding (mice [2]; [4]): 2
- abdominal cavity red liquid, number of animals with finding (mice [2]; [5]): 3
- kidneys venostasis, number of animals with finding (mice [2]; [5]): 3
- liver venostasis, number of animals with finding (mice [2]; [5]): 3
- thoracic cavity red liquid, number of animals with finding (mice [2]; [5]): 1
- abdominal cavity red liquid, number of animals with finding (mice [2]; [6]): 3
- kidneys venostasis, number of animals with finding (mice [2]; [6]): 3
- liver venostasis, number of animals with finding (mice [2]; [6]): 3
- lungs venostasis, number of animals with finding (mice [2]; [6]): 1
- thoracic cavity red liquid, number of animals with finding (mice [2]; [6]): 1
- liver enlarged, number of animals with finding (mice [2]; [7]): 3
- liver rounded edges, number of animals with finding (mice [2]; [7]): 3
- abdominal cavity red liquid, number of animals with finding (mice [2]; [8]): 1
- kidneys venostasis, number of animals with finding (mice [2]; [8]): 1
- liver enlarged, number of animals with finding (mice [2]; [8]): 2
- liver rounded edges, number of animals with finding (mice [2]; [8]): 2
- liver venostasis, number of animals with finding (mice [2]; [8]): 1
- liver enlarged, number of animals with finding (mice [2]; [9]): 3
- liver rounded edges, number of animals with finding (mice [2]; [9]): 3
- spleen peritoneal adhesions, number of animals with finding (mice [2]; [9]): 1
- liver enlarged, number of animals with finding (mice [2]; [10]): 3
- liver peritoneal adhesions, number of animals with finding (mice [2]; [10]): 2
- liver rounded edges, number of animals with finding (mice [2]; [10]): 3
- spleen peritoneal adhesions, number of animals with finding (mice [2]; [10]): 2
- safe limit (maximal tolerated dose) (mice [2]; administered peritoneally): 50 mg/kg
- clinical signs (mice [2]; i.p. 80 mg/kg): all the monitored animals were slightly stolid 5 min after the administration
- severe clinical signs / moribund animals (mice [2]; i.p. 80 mg/kg, 24-26 hours): In one male a disturbance of locomotion was observed
- clinical signs (mice [2]; i.p. 250 mg/kg and 500 mg/kg): exacerbated the symptoms
- mortality (mice [2]; i.p. 500 mg/kg, several hours after administration, 3 males + 3 females): death of 2 males and 2 females
- signs of toxicity (mice [2]; i.p. 5 and 50 mg/kg): did not cause any signs of toxicity
- development of resistance (B. subtilis 168): failed to obtain cells that would grow at concentrations exceeding the MIC
